The source of these data is article PMC7570662, “In Vivo Pharmacokinetic Analysis Utilizing Non-Targeted and Targeted Mass Spectrometry and In Vitro Assay against Transient Receptor Potential Channels of Maobushisaishinto and Its Constituent Asiasari Radix” (Molecules, 2020).

Data set [1] is described as follows: Qualitative non-targeted LC-HRMS analysis of AR compounds in rat plasma after oral AR or MBST. Format: in vivo. The settings on record: for AR-Treated Rat Plasma (detection of compound): rat plasma 1 h after oral 2 g/kg AR, n = 1, LC-HRMS; for MBST-Treated Rat Plasma (detection of compound): rat plasma 1 h after oral 2 g/kg MBST, n = 3, LC-HRMS. As for the experimental part: Extract powders of AR or MBST were suspended in distilled water and orally administered to rats having fasted for approximately 16 h. The dose of AR was set at 2 g/kg, and the MBST doses were set at 1 and 2 g/kg. 1 g/kg MBST contained 578 µg/kg, 147 µg/kg, 226 µg/kg, 426 µg/kg asarinin, sesamin, methyl kakuol, and amide A, respectively. The doses were chosen based on a previous pharmacological study of MBST using rats.
According to previous pharmacokinetic studies of herbal medicines, many of the components were quickly absorbed into the bloodstream, thereby providing the rationale for a sampling time at 1 h. Blood was centrifuged at 1200× g at 4 °C for 30 min to obtain plasma; then, the sample was stored at −80 °C until LC-HRMS analysis. […]
The plasma samples were collected at 1 h after MBST administration in case of both the qualitative (non-targeted) analysis and the quantitative (targeted) analysis.
The plasma samples of AR- or MBST-treated rats collected at 1 h post-administration were pretreated by deproteinization using methanol before the LC-HRMS analysis as follows: 100 µL plasma sample was mixed with 500 µL methanol, and the resultant solution was vortexed for 2 min. The mixture was centrifuged at 7000× g at 4 °C for 5 min. The supernatant was dried using a centrifugal evaporator, and the dried residue was dissolved in 100 μL of the initial LC mobile phase which is composed of 0.1 vol% formic acid in water/acetonitrile (99.9/0.1, v/v) and recentrifuged at 7000× g at 4 °C for 5 min. Finally, a 5 μL aliquot of the supernatant was injected into the LC-HRMS system comprised of an Acquity Ultra-Performance Liquid Chromatography System (Waters, Milford, MA, USA) and a Xevo G2-XS quadrupole time-of-flight MS (Waters) and was chromatographically separated using an ACQUITY UPLC HSS T3 column (2.1 × 150 mm I.D., 1.8-μm particle size; Waters) with an ACQUITY UPLC HSS T3 VanGuard Pre-column (2.1 mm × 5 mm I.D., 1.8-μm particle size; Waters) at 40 °C. The mobile phase consisted of solution A (0.1% formic acid, v/v) and solution B (acetonitrile) with a gradient of solution B (0.1%, 0 min; 99%, 24 min; v/v) at a flow rate of 0.4 mL/min. The analysis of the mass spectrometer fit with an electrospray ionization probe with sensitivity mode was performed for both the positive and negative ion mode. The resolution of the mass spectrometer was set at >20,000. For MS^E experiments, two acquisition functions with different collision energies were created: a low-energy function with a collision energy of 6 eV and a high-energy function with collision energy ranging from 15 to 40 eV.

For a further data set, the target named is T1, human TRPV1 (Homo sapiens, UniProt Q8NER1).
T1 construct: Each full-length human TRPA1, TRPV1, TRPV4, and TRPM8 coding regions were introduced into a pcDNA4/TO vector; expressed in transfected cells; host or cells: T-REx-293 cells (tetracycline-induced, pcDNA4/TO vector)
T1 sequence (Q8NER1 whole entry): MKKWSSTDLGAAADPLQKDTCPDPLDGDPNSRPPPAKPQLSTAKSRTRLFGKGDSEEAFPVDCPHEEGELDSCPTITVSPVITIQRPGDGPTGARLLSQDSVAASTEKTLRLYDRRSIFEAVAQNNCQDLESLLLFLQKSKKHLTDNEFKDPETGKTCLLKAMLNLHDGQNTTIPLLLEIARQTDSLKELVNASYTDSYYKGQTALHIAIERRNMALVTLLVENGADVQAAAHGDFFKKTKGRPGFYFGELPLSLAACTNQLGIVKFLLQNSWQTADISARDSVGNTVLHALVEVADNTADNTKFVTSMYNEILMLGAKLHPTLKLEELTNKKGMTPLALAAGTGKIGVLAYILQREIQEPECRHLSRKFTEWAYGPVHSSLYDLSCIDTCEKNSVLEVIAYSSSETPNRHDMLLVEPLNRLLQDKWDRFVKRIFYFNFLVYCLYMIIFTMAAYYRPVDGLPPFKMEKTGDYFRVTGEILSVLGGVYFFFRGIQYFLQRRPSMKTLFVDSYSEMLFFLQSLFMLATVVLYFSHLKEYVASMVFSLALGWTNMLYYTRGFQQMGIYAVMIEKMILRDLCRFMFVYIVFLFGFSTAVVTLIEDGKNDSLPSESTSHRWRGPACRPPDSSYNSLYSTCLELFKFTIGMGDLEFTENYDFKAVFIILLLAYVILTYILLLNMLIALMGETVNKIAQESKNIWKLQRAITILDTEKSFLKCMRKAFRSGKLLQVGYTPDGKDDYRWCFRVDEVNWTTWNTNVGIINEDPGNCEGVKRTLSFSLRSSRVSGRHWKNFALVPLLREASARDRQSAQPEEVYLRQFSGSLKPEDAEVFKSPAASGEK
The data set can be described thus: Ca2+ influx assay in TRPV1-expressing T-REx-293 cells. In kind it is cell-based. As to conditions: 10 µmol/L test compound; relative to 2 µmol/L capsaicin. As for the experimental part: (§1) Each full-length human TRPA1, TRPV1, TRPV4, and TRPM8 coding regions were introduced into a pcDNA4/TO vector (Thermo Fisher Scientific, Waltham, MA, USA) and transfected into T-REx-293 cells (Thermo Fisher Scientific) to obtain stable cell lines expressing human TRPA1, TRPV1, TRPV4, and TRPM8. Cells were cultured in DMEM with 10% FBS, 4 mmol/L L-glutamine, and penicillin/streptomycin.
(§2) Cells were suspended in medium with 1 µg/mL tetracycline and seeded in poly-D-lysine coated 96-well plate at 2.5 × 10^4 cells/well. After overnight culture, the cells were used for Ca^2+ influx assay.
(§3) The Ca^2+ influx assay was performed using a FLIPR Calcium 5 Assay Kit (Molecular Devices, Sunnyvale, CA, USA) according to previously reported methods with minor modifications. In brief, cells were incubated with 80 µL Ca^2+-chelating dye dissolved in assay buffer at pH 7.4 (Hanks’ Balanced Salt Solution containing 20 mmol/L of N-2-hydroxyethylpiperazine-N’-2-ethanesulfonic acid) at room temperature for 30 min. The plates were assayed using a FlexStation 3 Microplate Reader (Molecular Devices). The fluorescence intensity was traced entirely for 80 s. The baseline of fluorescence was measured for 20 s before adding 20 µL of test compound (final concentration, 10 µmol/L). The response was expressed as percentage activation using the relative fluorescence units (RFU) (% activation = 100 × ((RFUmax − RFUbaseline)/RFUbaseline) − 100). Furthermore, the activities of each test compound against several subfamilies of TRP channels were represented as the relative enhancement of Ca^2+ influx of each positive control, indicated as follows: 20 µmol/L of allyl isothiocyanate (an agonist of TRPA1), 2 µmol/L of capsaicin (an agonist of TRPV1), 4 µmol/L of GSK1016790A (an agonist of TRPV4), and 20 µmol/L of icilin (an agonist of TRPM8). The dose–response curve was fitted to the sigmoidal dose-response equation (top, the max response of each compound), and EC50 values were calculated using GraphPad Prism 7 software (GraphPad, San Diego, CA, USA).

A further data set addresses T2, human TRPV4 (Homo sapiens, UniProt Q9HBA0).
T2 construct: Each full-length human TRPA1, TRPV1, TRPV4, and TRPM8 coding regions were introduced into a pcDNA4/TO vector; expressed in transfected cells; host or cells: T-REx-293 cells (tetracycline-induced, pcDNA4/TO vector)
Nature of the data set: Ca2+ influx assay in TRPV4-expressing T-REx-293 cells. In kind it is cell-based. The settings on record: 10 µmol/L test compound; relative to 4 µmol/L GSK1016790A. As for the experimental part:
as §1, §2, §3

Another data set addresses T3, human TRPA1 (Homo sapiens, UniProt O75762).
T3 construct: Each full-length human TRPA1, TRPV1, TRPV4, and TRPM8 coding regions were introduced into a pcDNA4/TO vector; expressed in transfected cells; host or cells: T-REx-293 cells (tetracycline-induced, pcDNA4/TO vector)
The data set can be described thus: Ca2+ influx assay in TRPA1-expressing T-REx-293 cells. In kind it is cell-based. The settings on record: 10 µmol/L test compound; relative to 20 µmol/L allyl isothiocyanate. As for the experimental part:
as §1, §2, §3

Another data set deals with T4, human TRPM8 (Homo sapiens, UniProt Q7Z2W7).
T4 construct: Each full-length human TRPA1, TRPV1, TRPV4, and TRPM8 coding regions were introduced into a pcDNA4/TO vector; expressed in transfected cells; host or cells: T-REx-293 cells (tetracycline-induced, pcDNA4/TO vector)
T4 sequence (Q7Z2W7 whole entry): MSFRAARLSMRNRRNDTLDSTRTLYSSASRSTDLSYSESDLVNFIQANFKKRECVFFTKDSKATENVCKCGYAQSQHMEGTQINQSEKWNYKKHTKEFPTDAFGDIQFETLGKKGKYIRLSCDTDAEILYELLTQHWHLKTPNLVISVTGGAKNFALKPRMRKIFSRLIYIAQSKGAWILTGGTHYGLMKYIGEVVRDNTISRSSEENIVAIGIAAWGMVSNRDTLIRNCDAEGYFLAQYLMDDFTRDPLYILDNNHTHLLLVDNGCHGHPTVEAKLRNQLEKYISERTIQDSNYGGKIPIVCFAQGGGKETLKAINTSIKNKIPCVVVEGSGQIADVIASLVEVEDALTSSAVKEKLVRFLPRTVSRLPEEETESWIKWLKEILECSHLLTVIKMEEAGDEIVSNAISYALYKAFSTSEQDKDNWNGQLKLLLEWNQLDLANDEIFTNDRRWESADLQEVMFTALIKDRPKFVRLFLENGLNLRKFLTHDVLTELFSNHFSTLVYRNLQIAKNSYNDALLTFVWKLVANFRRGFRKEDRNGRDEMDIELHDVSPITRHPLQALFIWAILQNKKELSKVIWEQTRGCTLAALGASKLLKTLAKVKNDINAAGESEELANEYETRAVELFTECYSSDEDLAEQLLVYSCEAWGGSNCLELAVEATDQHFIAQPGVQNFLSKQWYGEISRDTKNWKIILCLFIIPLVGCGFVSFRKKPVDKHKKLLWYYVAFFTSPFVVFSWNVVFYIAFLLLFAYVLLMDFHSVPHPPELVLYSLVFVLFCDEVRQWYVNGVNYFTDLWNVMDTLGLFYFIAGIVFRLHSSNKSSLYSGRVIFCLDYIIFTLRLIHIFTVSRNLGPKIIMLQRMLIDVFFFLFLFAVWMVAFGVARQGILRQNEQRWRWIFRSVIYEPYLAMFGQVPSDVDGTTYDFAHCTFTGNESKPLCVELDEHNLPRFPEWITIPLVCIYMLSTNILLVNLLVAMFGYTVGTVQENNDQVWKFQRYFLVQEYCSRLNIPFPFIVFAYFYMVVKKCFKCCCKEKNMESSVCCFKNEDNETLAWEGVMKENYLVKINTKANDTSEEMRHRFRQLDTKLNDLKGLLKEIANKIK
The data set can be described thus: Ca2+ influx assay in TRPM8-expressing T-REx-293 cells. In kind it is cell-based. As to conditions: 10 µmol/L test compound; relative to 20 µmol/L icilin. As for the experimental part: as §1, §2, §3

T3 sequence (O75762 whole entry): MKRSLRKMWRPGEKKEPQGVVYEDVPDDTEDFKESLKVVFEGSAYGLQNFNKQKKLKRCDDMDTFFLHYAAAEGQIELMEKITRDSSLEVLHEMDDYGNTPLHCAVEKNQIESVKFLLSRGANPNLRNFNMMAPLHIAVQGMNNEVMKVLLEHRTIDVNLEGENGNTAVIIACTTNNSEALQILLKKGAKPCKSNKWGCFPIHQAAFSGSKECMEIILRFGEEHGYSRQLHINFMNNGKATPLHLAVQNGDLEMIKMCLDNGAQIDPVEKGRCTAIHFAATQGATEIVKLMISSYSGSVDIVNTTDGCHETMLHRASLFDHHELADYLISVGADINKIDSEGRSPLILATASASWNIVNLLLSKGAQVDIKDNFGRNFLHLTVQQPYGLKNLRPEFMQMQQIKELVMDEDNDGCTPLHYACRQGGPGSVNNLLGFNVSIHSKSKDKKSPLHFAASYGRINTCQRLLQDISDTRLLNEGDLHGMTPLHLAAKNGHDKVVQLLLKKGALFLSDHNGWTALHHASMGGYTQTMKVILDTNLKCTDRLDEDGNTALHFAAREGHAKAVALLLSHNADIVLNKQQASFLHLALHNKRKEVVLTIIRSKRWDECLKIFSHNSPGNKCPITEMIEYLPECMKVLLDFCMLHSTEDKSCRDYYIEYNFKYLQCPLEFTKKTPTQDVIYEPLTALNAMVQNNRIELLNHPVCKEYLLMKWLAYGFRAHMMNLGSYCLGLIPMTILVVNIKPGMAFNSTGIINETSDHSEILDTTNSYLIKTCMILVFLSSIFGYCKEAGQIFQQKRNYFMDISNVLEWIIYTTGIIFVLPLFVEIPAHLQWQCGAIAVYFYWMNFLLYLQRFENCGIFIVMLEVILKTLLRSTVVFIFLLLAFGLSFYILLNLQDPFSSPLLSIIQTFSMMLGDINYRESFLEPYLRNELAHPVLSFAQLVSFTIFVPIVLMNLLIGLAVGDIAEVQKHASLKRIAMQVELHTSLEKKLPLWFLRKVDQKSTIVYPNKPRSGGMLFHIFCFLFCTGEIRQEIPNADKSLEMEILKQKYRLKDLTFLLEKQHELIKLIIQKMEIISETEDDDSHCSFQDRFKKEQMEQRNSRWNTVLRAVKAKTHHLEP
T2 sequence (Q9HBA0 whole entry): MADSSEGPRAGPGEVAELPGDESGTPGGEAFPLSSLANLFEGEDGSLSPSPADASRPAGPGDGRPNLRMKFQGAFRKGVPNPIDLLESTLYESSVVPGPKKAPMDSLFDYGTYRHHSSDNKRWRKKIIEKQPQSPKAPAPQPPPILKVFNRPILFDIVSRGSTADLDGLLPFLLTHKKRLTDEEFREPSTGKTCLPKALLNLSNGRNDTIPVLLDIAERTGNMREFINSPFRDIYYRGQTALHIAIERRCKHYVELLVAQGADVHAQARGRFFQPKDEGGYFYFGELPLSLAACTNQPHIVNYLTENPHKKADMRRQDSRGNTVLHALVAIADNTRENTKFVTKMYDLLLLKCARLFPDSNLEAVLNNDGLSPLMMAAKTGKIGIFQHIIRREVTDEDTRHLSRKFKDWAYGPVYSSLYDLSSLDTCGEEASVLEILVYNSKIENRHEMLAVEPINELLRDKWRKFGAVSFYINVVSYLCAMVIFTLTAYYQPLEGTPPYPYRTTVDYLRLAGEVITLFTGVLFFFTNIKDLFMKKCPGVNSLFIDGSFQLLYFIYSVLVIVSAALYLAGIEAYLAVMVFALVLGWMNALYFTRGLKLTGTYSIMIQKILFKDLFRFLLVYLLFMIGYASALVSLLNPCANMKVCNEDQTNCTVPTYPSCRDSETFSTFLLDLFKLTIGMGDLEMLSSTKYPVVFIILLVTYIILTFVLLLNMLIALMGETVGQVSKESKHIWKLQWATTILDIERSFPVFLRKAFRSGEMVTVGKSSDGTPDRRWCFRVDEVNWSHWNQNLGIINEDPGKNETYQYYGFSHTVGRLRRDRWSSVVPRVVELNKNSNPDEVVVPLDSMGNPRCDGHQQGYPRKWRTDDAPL

In the case of `CC=CC=CCCC=CC=CC(=O)NCC(C)C` (single isomer, unassigned) [N-Isobutyl-2,4,8,10-dodecatetraenamide isomer], in data set [1], the “AR-Treated Rat Plasma (detection of compound)” value (from here on “AR-Treated Rat Plasma”) was “+ (The number of plus signs represents the sample number in which the compound was detected among AR-treated rat plasma (n = 1) and MBST-treated rat plasma (n = 3))”; the “MBST-Treated Rat Plasma (detection of compound)” value (“MBST-Treated Rat Plasma” below) was “+ + + (The number of plus signs represents the sample number in which the compound was detected among AR-treated rat plasma (n = 1) and MBST-treated rat plasma (n = 3))”.
For `Oc1ccc(C2OCC3C(c4ccc5c(c4)OCO5)OCC23)cc1O` (stereo not drawn) [(7α,7′β,8α,8′α)-3,4-Methylenedioxy-3′,4′-dihydroxy-7,9′:7′,9-diepoxylignane], in data set [1], the “AR-Treated Rat Plasma” value was “+ (The number of plus signs represents the sample number in which the compound was detected among AR-treated rat plasma (n = 1) and MBST-treated rat plasma (n = 3))”.
`COc1cc(O)cc2c1cc([N+](=O)[O-])c1c(C(=O)O)cc3c(c12)OCO3` [Aristolochic acid Iva]: in data set [1], the “AR-Treated Rat Plasma” value was “+ (The number of plus signs represents the sample number in which the compound was detected among AR-treated rat plasma (n = 1) and MBST-treated rat plasma (n = 3))”; the “MBST-Treated Rat Plasma” value was “+ + + (The number of plus signs represents the sample number in which the compound was detected among AR-treated rat plasma (n = 1) and MBST-treated rat plasma (n = 3))”.
With `C=CCc1ccc(OC)cc1` [Estragole], the “AR-Treated Rat Plasma” value in data set [1] is “+ (The number of plus signs represents the sample number in which the compound was detected among AR-treated rat plasma (n = 1) and MBST-treated rat plasma (n = 3))”.
Turning to `C/C=C/C=C\CC/C=C/C(=O)NCC(C)C` [Spilanthol], the “Detection in plasma of rats treated with AR or MBST (non-targeted analysis)” value in data set [1] (rat, in vivo, po) was “not detected”.
With “(1R,2S)-(−)-N-methylephedrine [reference compound]”, at human TRPV1, the “% of Activation Compared to Positive Control against Each Subfamily of TRP Channel TRPV1” value is listed as −0.4%. The “% of Activation Compared to Positive Control against Each Subfamily of TRP Channel TRPV4” value at human TRPV4 is −0.1%. At human TRPA1, the “% of Activation Compared to Positive Control against Each Subfamily of TRP Channel TRPA1” value is 3%. Besides, the “% of Activation Compared to Positive Control against Each Subfamily of TRP Channel TRPM8” value at human TRPM8 came to 3.6%.
Regarding “(2E,4E,9E)-8,11-Dihydroxy-N-isobutyl-2,4,9-dodecatrienamide, (2E,4E,8Z)-10,11-Dihydroxy-N-isobutyl-2,4,8-dodecatrienamide”, in data set [1], the “AR-Treated Rat Plasma” value is “+ (The number of plus signs represents the sample number in which the compound was detected among AR-treated rat plasma (n = 1) and MBST-treated rat plasma (n = 3))”; the “MBST-Treated Rat Plasma” value is “+ + + (The number of plus signs represents the sample number in which the compound was detected among AR-treated rat plasma (n = 1) and MBST-treated rat plasma (n = 3))”.
For Neoline, the “% of Activation Compared to Positive Control against Each Subfamily of TRP Channel TRPV1” value on human TRPV1 is −0.4%. For the same compound, the “% of Activation Compared to Positive Control against Each Subfamily of TRP Channel TRPV4” value on human TRPV4 is 0.5%. The “% of Activation Compared to Positive Control against Each Subfamily of TRP Channel TRPA1” value at human TRPA1 was found to be 5%. Moreover, the “% of Activation Compared to Positive Control against Each Subfamily of TRP Channel TRPM8” value at human TRPM8 is given as 5.0%.
